Experimental data taken from ChEMBL document CHEMBL1122355, “Quantitative structure-activity relationships for 2-[(phenylmethyl)sulfonyl]pyridine 1-oxide herbicides” (1983).

How the values were obtained:
Assay type in all cases: functional
Echinochloa crus-galli = assay: Herbicidal activity against barnyard grass (Echinochloa crusgalli L. Beauv.) as the dose required for 50% control
Setaria viridis = assay: Herbicidal activity against green foxtail (Setaria viridis L. Beauv.) as the dose required for 50% control
Panicum virgatum = assay: Herbicidal activity against Switch grass (Panicum virgatum L.) as the dose required for 50% control

Row | SMILES | -Log ED50 (Echinochloa crus-galli) | -Log ED50 (Setaria viridis) | -Log ED50 (Panicum virgatum)
1 | Cc1ccc(Cl)c(C(C)S(=O)(=O)c2cccc[n+]2[O-])c1 (centres undefined) | 1.35 M acre-1 | 0.66 M acre-1 | 0.82 M acre-1
2 | Cc1c(Cl)ccc(C(C)S(=O)(=O)c2cccc[n+]2[O-])c1Cl (centres undefined) | 0.68 M acre-1 | 0.89 M acre-1 | 1 M acre-1
3 | CC(c1cc(F)ccc1F)S(=O)(=O)c1cccc[n+]1[O-] (centres undefined) | 1.22 M acre-1 | 1.17 M acre-1 | 1.22 M acre-1
4 | CC(c1cc(Cl)ccc1Cl)S(=O)(=O)c1cccc[n+]1[O-] (centres undefined) | 1.07 M acre-1 | 0.86 M acre-1 | 1.07 M acre-1
5 | O=S(=O)(Cc1ccccc1Cl)c1cccc[n+]1[O-] | 0.85 M acre-1 | 0.43 M acre-1 | 0.4 M acre-1
6 | N#Cc1ccccc1CS(=O)(=O)c1cccc[n+]1[O-] | 0.18 M acre-1 | -0.01 M acre-1 | -0.22 M acre-1
7 | Cc1ccc(C(C)C)cc1C(C)S(=O)(=O)c1cccc[n+]1[O-] (centres undefined) | 0.89 M acre-1 | 0.57 M acre-1 | 0.7 M acre-1
8 | CCc1ccc(CC)c(C(C)S(=O)(=O)c2cccc[n+]2[O-])c1 (centres undefined) | 1.15 M acre-1 | 1.05 M acre-1 | 1.15 M acre-1
9 | Cc1ccc(C)c(CS(=O)(=O)c2cccc[n+]2[O-])c1C | 0.7 M acre-1 | 0.7 M acre-1 | 0.7 M acre-1
10 | Cc1ccc(C(F)(F)F)cc1C(C)S(=O)(=O)c1cccc[n+]1[O-] (centres undefined) | 0.79 M acre-1 | 1.09 M acre-1 | 1.09 M acre-1
11 | O=S(=O)(Cc1c(Cl)ccc(Cl)c1Cl)c1cccc[n+]1[O-] | 0.81 M acre-1 | 0.49 M acre-1 | 0.81 M acre-1
12 | COc1ccc(CS(=O)(=O)c2cccc[n+]2[O-])cc1OC | 0.13 M acre-1 | -0.01 M acre-1 | 0.23 M acre-1
13 | Cc1ccc(C)c(CS(=O)(=O)c2cccc[n+]2[O-])c1 | 1.09 M acre-1 | 0.39 M acre-1 | 0.99 M acre-1
14 | CC(c1c(F)cccc1Cl)S(=O)(=O)c1cccc[n+]1[O-] (centres undefined) | 1.35 M acre-1 | 1.35 M acre-1 | 1.65 M acre-1
15 | Cc1ccccc1C(C)S(=O)(=O)c1cccc[n+]1[O-] (centres undefined) | 1.58 M acre-1 | 1.29 M acre-1 | 1.29 M acre-1
16 | O=S(=O)(Cc1ccccc1)c1cccc[n+]1[O-] | 0.29 M acre-1 | 0.14 M acre-1 | 0.04 M acre-1
17 | O=S(=O)(Cc1cccc(Br)c1)c1cccc[n+]1[O-] | 0.16 M acre-1 | -0.14 M acre-1 | 0.03 M acre-1
18 | O=S(=O)(Cc1ccccc1F)c1cccc[n+]1[O-] | 0.37 M acre-1 | 0.07 M acre-1 | 0.77 M acre-1
19 | CC(c1ccc(S(C)(=O)=O)cc1)S(=O)(=O)c1cccc[n+]1[O-] (centres undefined) | -0.43 M acre-1 | -0.43 M acre-1 | -0.35 M acre-1

Row | SMILES | -Log ED50 (Echinochloa crus-galli) | -Log ED50 (Setaria viridis) | -Log ED50 (Panicum virgatum)
20 | O=S(=O)(Cc1c(Cl)cccc1Cl)c1cccc[n+]1[O-] | 0.96 M acre-1 | 0.74 M acre-1 | 0.74 M acre-1
21 | O=S(=O)(Cc1ccccc1Oc1ccccc1)c1cccc[n+]1[O-] | -0.12 M acre-1 | -0.03 M acre-1 | 0.11 M acre-1
22 | CC(C)c1ccc(C(C)C)c(CS(=O)(=O)c2cccc[n+]2[O-])c1 | -0.02 M acre-1 | -0.02 M acre-1 | -0.02 M acre-1
23 | CC(c1cccc(C(F)(F)F)c1)S(=O)(=O)c1cccc[n+]1[O-] (centres undefined) | 0.46 M acre-1 | 0.77 M acre-1 | 1.37 M acre-1
24 | CC(c1ccc([N+](=O)[O-])cc1)S(=O)(=O)c1cccc[n+]1[O-] (centres undefined) | 0.43 M acre-1 | 0.23 M acre-1 | 0.43 M acre-1
25 | CC(c1cc(C(F)(F)F)ccc1Cl)S(=O)(=O)c1cccc[n+]1[O-] (centres undefined) | 0.91 M acre-1 | 0.63 M acre-1 | 1.26 M acre-1
26 | CCCCOc1cccc(CS(=O)(=O)c2cccc[n+]2[O-])c1 | 0.15 M acre-1 | -0.15 M acre-1 | -0.15 M acre-1
27 | CC(c1cccc(Cl)c1F)S(=O)(=O)c1cccc[n+]1[O-] (centres undefined) | 1.36 M acre-1 | 1.05 M acre-1 | 1.24 M acre-1
28 | CC(C)c1ccc(C(C)C)c(C(C)S(=O)(=O)c2cccc[n+]2[O-])c1 (centres undefined) | 0.78 M acre-1 | 0.19 M acre-1 | 0.19 M acre-1
29 | COc1ccc(Br)c(CS(=O)(=O)c2cccc[n+]2[O-])c1 | 0.6 M acre-1 | 0.5 M acre-1 | 0.95 M acre-1
30 | Cc1ccc(C)c(C(C)S(=O)(=O)c2cccc[n+]2[O-])c1 (centres undefined) | 1.3 M acre-1 | 1.25 M acre-1 | 1.25 M acre-1
31 | COc1ccc(C)cc1CS(=O)(=O)c1cccc[n+]1[O-] | 1.02 M acre-1 | 0.41 M acre-1 | 0.73 M acre-1
32 | COc1cc(CS(=O)(=O)c2cccc[n+]2[O-])cc(OC)c1OC | -0.77 M acre-1 | -0.79 M acre-1 | -0.77 M acre-1
33 | CC(C)c1ccc(CS(=O)(=O)c2cccc[n+]2[O-])cc1 | -0.1 M acre-1 | -0.1 M acre-1 | 0.62 M acre-1
34 | CC(c1ccc(Cl)cc1)S(=O)(=O)c1cccc[n+]1[O-] (centres undefined) | 0.9 M acre-1 | 0.82 M acre-1 | 1.14 M acre-1
35 | Cc1ccc(C(C)S(=O)(=O)c2cccc[n+]2[O-])cc1C (centres undefined) | 1.31 M acre-1 | 1.07 M acre-1 | 1.24 M acre-1
36 | O=S(=O)(Cc1ccccc1I)c1cccc[n+]1[O-] | 0.52 M acre-1 | 0.22 M acre-1 | 0.32 M acre-1
37 | Cc1cc(Cl)ccc1C(C)S(=O)(=O)c1cccc[n+]1[O-] (centres undefined) | 0.84 M acre-1 | 0.79 M acre-1 | 0.98 M acre-1
38 | O=S(=O)(Cc1ccc(-c2ccccc2)cc1)c1cccc[n+]1[O-] | -0.69 M acre-1 | -0.54 M acre-1 | -0.19 M acre-1
